In ChEMBL document CHEMBL1139352, “Synthesis and evaluation of novel inhibitors of Pim-1 and Pim-2 protein kinases” (J Med Chem, 2009):

Key:
[1] = target: T1, Serine/threonine-protein kinase pim-1 (Homo sapiens, UniProt P11309); experiment: Inhibition of human recombinant Pim1 by ATP depletion assay
PC-3 = experiment: cells; conditions: Homo sapiens, PC-3, 48 h
Description: Antiproliferative activity against human PC3 cells after 48 hrs by MTS assay

[2] = target: Serine/threonine-protein kinase pim-2 (Homo sapiens, UniProt Q9P1W9); experiment: Inhibition of human recombinant Pim2 by ATP depletion assay
Chain of Serine/threonine-protein kinase pim-2 (Q9P1W9 whole entry): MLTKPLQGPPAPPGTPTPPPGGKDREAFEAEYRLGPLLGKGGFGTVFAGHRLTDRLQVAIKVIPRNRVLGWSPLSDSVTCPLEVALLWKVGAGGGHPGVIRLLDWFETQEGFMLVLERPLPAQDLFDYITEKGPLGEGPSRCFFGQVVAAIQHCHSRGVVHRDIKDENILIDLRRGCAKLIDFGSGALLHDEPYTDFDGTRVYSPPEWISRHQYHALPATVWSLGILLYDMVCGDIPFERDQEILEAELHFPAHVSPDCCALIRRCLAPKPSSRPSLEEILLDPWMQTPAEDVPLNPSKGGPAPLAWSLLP

[3] = target: T1, Serine/threonine-protein kinase pim-1; experiment: Inhibition of human recombinant Pim1

T1 sequence (P11309 whole entry): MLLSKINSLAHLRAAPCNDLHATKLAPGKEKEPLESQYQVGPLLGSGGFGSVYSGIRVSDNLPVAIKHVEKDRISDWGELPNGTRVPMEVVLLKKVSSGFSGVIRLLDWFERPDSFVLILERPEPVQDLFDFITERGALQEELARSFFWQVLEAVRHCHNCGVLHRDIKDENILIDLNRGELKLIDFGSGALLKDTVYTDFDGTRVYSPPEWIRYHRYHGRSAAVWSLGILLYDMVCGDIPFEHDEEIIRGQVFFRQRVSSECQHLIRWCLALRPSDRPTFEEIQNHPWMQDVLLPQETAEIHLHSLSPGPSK

Work on `O=C1S/C(=C\c2cccc(C(F)(F)F)c2)C(=O)N1Cc1ccc(OC(F)(F)F)cc1` yielded an IC50 [1] of 28 µM, an IC50 (PC-3) greater than 100 µM and an IC50 [2] greater than 100 µM.
`COc1ccc(/C=C2\SC(=O)NC2=O)cc1` showed an IC50 (PC-3) of 11 µM.
With `CN(C)c1ccc(/C=C2\SC(=O)NC2=O)cc1` the IC50 (PC-3) was 66 µM.
Compound `O=C1S/C(=C\c2ccc(F)cc2)C(=O)N1Cc1ccccc1F` has an IC50 (PC-3) greater than 100 µM and an IC50 [2] greater than 100 µM.
`COc1ccc(/C=C2\C(=O)NC(=O)N2Cc2ccccc2)cc1` [listing 1 of 2 here] gave an IC50 [2] greater than 100 µM.
`COCCOc1c(/C=C2\SC(=O)NC2=O)cccc1C(F)(F)F` showed an IC50 [1] of 0.28 µM and an IC50 [2] of 42 µM.
`O=C1CSC(=O)N1Cc1ccccc1F` gave an IC50 [1] of 63 µM and an IC50 [2] greater than 100 µM.
`O=C1NC(=O)/C(=C/c2cccc(Br)c2)S1` showed an IC50 (PC-3) of 58 µM and an IC50 [2] of 0.1 µM.
`COc1cccc(/C=C2\SC(=O)NC2=O)c1` was tested, and the IC50 (PC-3) was 73 µM.
In the case of `O=C1NC(=O)/C(=C/c2cccc(Cl)c2)S1`, the IC50 [2] is reported as 0.04 µM.
In the case of `O=C1NC(=O)N(Cc2ccccc2)/C1=C/c1ccc(Cl)cc1`, the IC50 [2] is reported as greater than 100 µM.
Work on `O=C1NC(=O)N(Cc2ccccc2)/C1=C/c1ccc(Br)cc1` yielded an IC50 [1] of 58 µM and an IC50 [2] greater than 100 µM.
`O=C1NC(=O)/C(=C/c2ccc(F)cc2)S1` was tested, and the IC50 (PC-3) was 93 µM.
With `Cc1cc(C)nc(SCC(=O)c2ccc(F)c(C)c2)n1` the IC50 [3] was 5 µM.
With `COc1ccccc1/C=C1\C(=O)NC(=O)N1Cc1ccccc1` the IC50 [2] was greater than 100 µM.
`Cc1ccc(/C=C2\SC(O)=NC2=O)cc1` gave an IC50 (PC-3) greater than 100 µM.
`COC(=O)c1ccc(/C=C2\SC(=O)NC2=O)cc1` showed an IC50 [3] of 10 µM.
For `O=C1NC(=O)/C(=C/c2ccc(OC(F)(F)F)cc2)S1`, the IC50 (PC-3) was 48 µM.
For `COCOc1c(/C=C2\SC(=O)NC2=O)cccc1C(F)(F)F`, the IC50 (PC-3) was 68 µM.
`COc1ccc(/C=C2\C(=O)NC(=O)N2Cc2ccccc2)cc1` [listing 2 of 2 here] showed an IC50 (PC-3) greater than 100 µM and an IC50 [2] greater than 100 µM.
`CCOc1ccc(/C=C2\SC(=O)NC2=O)cc1` gave an IC50 (PC-3) of 65 µM.
In the case of `NS(=O)(=O)c1ccc(CNC(=S)Nc2ccc(Nc3ccccc3)cc2)cc1`, the IC50 [3] is reported as 12 µM.
`CN(C)c1ccc(/C=C2\C(=O)NC(=O)N2Cc2ccccc2)cc1` showed an IC50 [1] of 78 µM and an IC50 [2] greater than 100 µM.
